{"source": "patent US20150217004A1", "about": "“CARBAMATE COMPOUNDS AND METHODS OF USE IN DISEASES OF THE NERVOUS SYSTEM” (priority 2012, published 2015)", "key": {"BuChE": {"tested_on": "BuChE", "test": "In vitro autoradiography with human tissues (Alzheimer's disease or cognitively normal)", "assay_type": "binding", "settings": "3.7 MBq, 18 hours at 37° C., maleate buffer pH 6.8, FIG. 3", "procedure": "Human tissue from Alzheimer's disease or cognitively normal individuals was obtained from the Maritime Brain Tissue Bank (Halifax, Canada). These tissues were adjacent […] sections through areas such as the orbitofrontal cortex. The tissues were mounted on glass slides, in maleate buffer pH 6.8, and gently heated on a slide warmer until firmly adhered. The mounted tissue was rehydrated twice for 5 min, in maleate buffer pH 6.8, before placed in a coplin jar. Nine sections occupied each jar. 25 mL of maleate buffer pH 6.8 containing Phenyl 4-([^123I]iodo)phenylcarbamate (3.7 MBq) was added to the coplin jar and the tissue incubated for 18 hours at 37° C. with gentle agitation. At the completion of incubation, the tissue was rinsed twice for 1 min in distilled water and the slides dried on a slide wanner. The tissue was exposed to a high resolution phosphorimaging screen (GE Healthcare) for 22.5 hours. The screen was scanned with a typhoon 9400 imager (GE Healthcare) to produce the autoradiogram. Image contrast was adjusted with Adobe Photoshop CS5."}, "human recombinant AChE": {"target": "human recombinant AChE (Homo sapiens, UniProt P22303)", "sequence (P22303 32-614)": "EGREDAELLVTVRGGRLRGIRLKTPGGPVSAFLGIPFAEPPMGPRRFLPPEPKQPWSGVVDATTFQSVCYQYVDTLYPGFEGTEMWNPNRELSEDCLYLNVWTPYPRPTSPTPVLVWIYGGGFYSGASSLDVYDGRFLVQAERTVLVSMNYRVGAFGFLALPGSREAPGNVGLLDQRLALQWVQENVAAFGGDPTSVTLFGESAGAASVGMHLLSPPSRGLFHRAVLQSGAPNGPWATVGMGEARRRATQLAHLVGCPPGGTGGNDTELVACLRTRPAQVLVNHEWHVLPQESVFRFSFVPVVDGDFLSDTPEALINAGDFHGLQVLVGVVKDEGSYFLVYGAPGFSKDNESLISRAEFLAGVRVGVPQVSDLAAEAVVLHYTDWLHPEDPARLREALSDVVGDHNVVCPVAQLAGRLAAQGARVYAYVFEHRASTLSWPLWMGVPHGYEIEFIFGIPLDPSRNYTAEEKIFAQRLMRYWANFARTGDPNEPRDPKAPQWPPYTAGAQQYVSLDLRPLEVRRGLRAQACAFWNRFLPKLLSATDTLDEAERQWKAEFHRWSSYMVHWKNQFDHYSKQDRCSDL", "test": "Esterase activity assay (Ellman), enzyme deactivation over time, AChE", "assay_type": "biochemical", "settings": "FIG. 2", "procedure": "(§1) The ability of the compounds to inhibit cholinesterases was evaluated by Ellman's spectrophotometric method (Ellman, G. L., Courtney, K. D., Andres, V. Jr. and Featherstone, R. M. A new and rapid colorimetric determination of acetylcholinesterase activity. Biochemical Pharmacology, 7, 88-95 (1961)) using human recombinant AChE and. acetylthiocholine as the substrate, and human serum BuChE with butyrylthiocholine as the substrate.\n(§2) To test for enzyme deactivation over time, loss of enzyme activity was monitored. Briefly, 1.35 mL of buffered DTNB solution (pH 8.0), 0.05 mL of enzyme (0.03 units of human recombinant AChE or 0.05 units of purified human serum BuChE in 0.1% aqueous gelatin containing 0.01% sodium azide) and 0.05 mL of the carbamate dissolved in 50% aqueous acetonitrile at 0.5-5 mM, depending on solubility, were combined in a stoppered cuvette of 1 cm path length. After mixing and bringing the absorbance to zero, 0.05 mL of 4.8 mM aqueous acetyl- or butyrylthiocholine substrate solution was added to the cuvette after incubation of the enzyme with carbamate and buffered DTNB for periods of 30 min or longer. A zero-time sample was also obtained by adding enzyme last to initiate reaction and the second-order rate constants for enzyme deactivation (ka values) were determined. The ka value was calculated by plotting ln (e0/et)/[I] against time, where e0 is the enzymatic activity at time zero (without preincubation of enzyme and inhibitor), et is the enzymatic activity at time t min of preincubation, and [I] is the molar concentration of inhibitor. The slope of this plot gave the second-order rate constant. Experiments were generally done at least in triplicate and the values averaged."}, "human serum BuChE": {"target": "T1, human serum BuChE (Homo sapiens, UniProt P06276)", "T1 construct": "0.05 units of purified human serum BuChE; from tissue; host or cells: human serum", "T1 sequence (P06276 29-602)": "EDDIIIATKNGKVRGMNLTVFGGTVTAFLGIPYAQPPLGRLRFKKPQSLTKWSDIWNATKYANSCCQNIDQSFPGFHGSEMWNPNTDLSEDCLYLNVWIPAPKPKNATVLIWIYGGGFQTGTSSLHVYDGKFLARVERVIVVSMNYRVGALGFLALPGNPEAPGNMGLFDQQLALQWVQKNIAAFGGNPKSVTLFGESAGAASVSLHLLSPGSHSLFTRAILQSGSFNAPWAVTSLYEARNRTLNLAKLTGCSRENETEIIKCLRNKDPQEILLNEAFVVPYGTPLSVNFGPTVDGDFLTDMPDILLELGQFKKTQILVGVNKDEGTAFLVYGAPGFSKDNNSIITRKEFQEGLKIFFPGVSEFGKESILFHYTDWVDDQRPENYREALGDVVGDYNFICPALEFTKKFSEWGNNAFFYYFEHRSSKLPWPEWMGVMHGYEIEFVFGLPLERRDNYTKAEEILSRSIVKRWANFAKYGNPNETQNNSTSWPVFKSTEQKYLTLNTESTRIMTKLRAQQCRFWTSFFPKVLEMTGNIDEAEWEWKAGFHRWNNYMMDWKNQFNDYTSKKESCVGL", "test": "Esterase activity assay (Ellman), enzyme deactivation over time, BuChE", "assay_type": "biochemical", "settings": "FIG. 2", "procedure": "as §1, §2"}}}
{"smiles": "O=C(Nc1ccc(F)cc1)Oc1ccccc1", "values": [{"measurement": "melting point", "value": "160 to 161", "unit": "°C"}]}
{"smiles": "O=C(Nc1ccc([123I])cc1)Oc1ccccc1", "note": "[Phenyl 4-([^123I]iodo)phenylcarbamate]", "values": [{"measurement": "autoradiography: distinction of normal, normal-with-Aβ-plaques and AD brain tissue", "setting": "BuChE", "value": "normal-with-Aβ-plaques and AD brain tissue can be distinguished"}]}
{"smiles": "O=C(Nc1ccc(I)cc1)Oc1ccccc1", "note": "[phenyl 4-(iodo)phenylcarbamate, Phenyl 4-(iodo)phenylcarbamate]", "values": [{"measurement": "effect on esterase activity (inhibition)", "setting": "human recombinant AChE", "value": "clearly has inhibitory effects"}, {"measurement": "persistence of interaction (ligand bound to enzyme)", "setting": "human recombinant AChE", "value": "persisted for hours"}, {"measurement": "rate of enzymatic deactivation", "setting": "human recombinant AChE", "value": "proceeded rapidly"}, {"measurement": "effect on esterase activity (inhibition)", "setting": "human serum BuChE", "value": "clearly has inhibitory effects"}, {"measurement": "persistence of interaction (ligand bound to enzyme)", "setting": "human serum BuChE", "value": "persisted for hours"}, {"measurement": "rate of enzymatic deactivation", "setting": "human serum BuChE", "value": "proceeded rapidly"}]}
